This note sets out measurements from patent publication US8178506B2, “Oligomeric compounds and compositions for use in modulation of small non-coding RNAs” (Regulus Therapeutics Inc., priority 2003, dated 2012).

This data set relates to HeLa cells. The data set can be described thus: Cell cycle assay in HeLa cells. The format is cell-based, human. Conditions: for % cells aneuploid / % cells in cell cycle phase G1 / % cells in cell cycle phase G2/M / % cells in cell cycle phase S / % cells in cell cycle phase subG1 / % cells in cell cycle phase: G1 / % cells in cell cycle phase: G2/M / % cells in cell cycle phase: S / % cells in cell cycle phase: aneuploid / % cells in cell cycle phase: subG1 / % cells in cell cycle phase aneuploid: HeLa cells; for % cells in cell cycle phase: G1 / % cells in cell cycle phase: G2/M / % cells in cell cycle phase: S / % cells in cell cycle phase: aneuploid / % cells in cell cycle phase: subG1: 48 hours after treatment, relative to untreated control (UTC=100).

Where [1] appears, read: 150 nM oligomeric compound, 24 hours, relative to untreated control (UTC = 100).
Where [2] appears, read: 150 nM, 48 hours, relative to untreated control.

Values joined by “and” are separate entries in the source; they are usually repeats but may differ in a detail not shown here. Equal entries are not always repeated. In the oligonucleotide strings, read from the 5' end, every base follows the letter of its sugar. An asterisk marks phosphorothioate; unmarked linkages are phosphodiester. Other units and linkages are bracketed, terminal groups are in braces. A string of capitals states the bases alone. e = 2'-O-(2-methoxyethyl) (MOE); [5mC] = 5-methylcytosine; d = 2'-deoxy (DNA)

Consider “328119 (antisense eA*eA*eT*eA*eA*e[5mC]*eA*e[5mC]*eA*e[5mC]*eA*eT*e[5mC]*e[5mC]*eA*e[5mC]*eT*eT*eT*eA*eA) [compound 328119]”, for which, under setting [1], the “% cells aneuploid” value came to 83%, the “% cells in cell cycle phase G1” value stood at 100%, the “% cells in cell cycle phase G2/M” value is given as 112% and the “% cells in cell cycle phase S” value was determined as 94%. Besides, the “% cells in cell cycle phase subG1” value under setting [1] stood at 75%. Also, where the note is “150 nM oligomeric compound”, the “% cells in cell cycle phase: G1” value came to 75%, the “% cells in cell cycle phase: G2/M” value worked out at 124%, the “% cells in cell cycle phase: S” value was found to be 145% and the “% cells in cell cycle phase: aneuploid” value came out at 81%. Besides, where the note is “150 nM oligomeric compound”, the “% cells in cell cycle phase: subG1” value turned out to be 767%.

In the case of “328111 (antisense eT*e[5mC]*e[5mC]*eG*eA*eG*eT*e[5mC]*eG*eG*eA*eG*eG*eA*eG*eG*eA*eG*eG*eA*eA) [compound 328111]”, under setting [1], the “% cells aneuploid” value is given as 50%, the “% cells in cell cycle phase G1” value is recorded as 127%, the “% cells in cell cycle phase G2/M” value is 99% and the “% cells in cell cycle phase S” value worked out at 75%. Moreover, the “% cells in cell cycle phase subG1” value under setting [1] amounted to 62%. Also, where the note is “150 nM oligomeric compound”, the “% cells in cell cycle phase: G1” value stood at 84%, the “% cells in cell cycle phase: G2/M” value turned out to be 119%, the “% cells in cell cycle phase: S” value came to 126% and the “% cells in cell cycle phase: aneuploid” value is recorded as 90%. In addition, the “% cells in cell cycle phase: subG1” value (150 nM oligomeric compound) stood at 371%.

For “328115 (antisense eA*eG*eA*eA*eG*eG*eT*eG*eG*eG*eG*eA*eG*e[5mC]*eA*eG*e[5mC]*eG*eT*e[5mC]*eA) [compound 328115]”, under setting [1], the “% cells aneuploid” value was 59%, the “% cells in cell cycle phase G1” value stood at 90%, the “% cells in cell cycle phase G2/M” value was 147% and the “% cells in cell cycle phase S” value worked out at 87%. The “% cells in cell cycle phase subG1” value under setting [1] stood at 177%. For the setting “150 nM oligomeric compound”, the “% cells in cell cycle phase: G1” value is listed as 92%, the “% cells in cell cycle phase: G2/M” value was found to be 107%, the “% cells in cell cycle phase: S” value is given as 114% and the “% cells in cell cycle phase: aneuploid” value worked out at 86%. Further, the “% cells in cell cycle phase: subG1” value (150 nM oligomeric compound) turned out to be 195%.

Consider “327896 (antisense eA*e[5mC]*eA*eG*eT*eT*e[5mC]*eT*eT*e[5mC]*eA*eA*e[5mC]*eT*eG*eG*e[5mC]*eA*eG*e[5mC]*eT*eT) [compound 327896]”, for which, under setting [1], the “% cells aneuploid” value is recorded as 65%, the “% cells in cell cycle phase G1” value was 83%, the “% cells in cell cycle phase G2/M” value turned out to be 128% and the “% cells in cell cycle phase S” value was found to be 103%. In addition, the “% cells in cell cycle phase subG1” value under setting [1] came out at 121%. In addition, where the note is “150 nM oligomeric compound”, the “% cells in cell cycle phase: G1” value is reported as 55%, the “% cells in cell cycle phase: G2/M” value is listed as 194%, the “% cells in cell cycle phase: S” value is 140% and the “% cells in cell cycle phase: aneuploid” value is listed as 66%. Besides, the “% cells in cell cycle phase: subG1” value (150 nM oligomeric compound) turned out to be 886%. Besides, under setting [2], the “% cells in cell cycle phase G1” value came out at 103%, the “% cells in cell cycle phase G2/M” value is reported as 106%, the “% cells in cell cycle phase S” value is listed as 94% and the “% cells in cell cycle phase aneuploid” value is on record as 144%. Moreover, the “% cells in cell cycle phase subG1” value under setting [2] is listed as 95%.

Take “327911 (antisense eG*e[5mC]*eT*eA*e[5mC]*e[5mC]*eT*eG*e[5mC]*eA*e[5mC]*eT*eG*eT*eA*eA*eG*e[5mC]*eA*e[5mC]*eT*eT*eT*eT) [compound 327911]”: under setting [1], the “% cells aneuploid” value was found to be 104%, the “% cells in cell cycle phase G1” value was found to be 130%, the “% cells in cell cycle phase G2/M” value is on record as 122% and the “% cells in cell cycle phase S” value is given as 62%. Also, the “% cells in cell cycle phase subG1” value under setting [1] turned out to be 158%. Further, for the setting “150 nM oligomeric compound”, the “% cells in cell cycle phase: G1” value came out at 99%, the “% cells in cell cycle phase: G2/M” value was found to be 109%, the “% cells in cell cycle phase: S” value was 96% and the “% cells in cell cycle phase: aneuploid” value worked out at 101%. For the same substance, the “% cells in cell cycle phase: subG1” value (150 nM oligomeric compound) is given as 65%.

On to “328759 (antisense eG*eA*eG*eG*eG*dA*dT*dT*dG*dT*dA*dT*dG*dA*dA*e[5mC]*eA*eT*e[5mC]*eT) [compound 328759]”, for which, under setting [1], the “% cells aneuploid” value was 184%, the “% cells in cell cycle phase G1” value stood at 88%, the “% cells in cell cycle phase G2/M” value is on record as 168% and the “% cells in cell cycle phase S” value turned out to be 78%. In addition, the “% cells in cell cycle phase subG1” value under setting [1] is given as 239%. Moreover, where the note is “150 nM oligomeric compound”, the “% cells in cell cycle phase: G1” value is 50%, the “% cells in cell cycle phase: G2/M” value came to 343%, the “% cells in cell cycle phase: S” value turned out to be 31% and the “% cells in cell cycle phase: aneuploid” value is recorded as 148%. For the same substance, the “% cells in cell cycle phase: subG1” value (150 nM oligomeric compound) is 1744%. In addition, under setting [2], the “% cells in cell cycle phase G1” value was found to be 40%, the “% cells in cell cycle phase G2/M” value worked out at 203%, the “% cells in cell cycle phase S” value came to 82% and the “% cells in cell cycle phase aneuploid” value was 223%. Moreover, the “% cells in cell cycle phase subG1” value under setting [2] came to 797%.

Take “327885 (antisense eA*e[5mC]*eT*eA*e[5mC]*e[5mC]*eT*eG*e[5mC]*eA*e[5mC]*eT*eG*eT*eA*eA*eG*e[5mC]*eA*e[5mC]*eT*eT*eT*eG) [compound 327885]”: under setting [1], the “% cells aneuploid” value was 55%, the “% cells in cell cycle phase G1” value is reported as 129%, the “% cells in cell cycle phase G2/M” value is 121% and the “% cells in cell cycle phase S” value is on record as 63%. Also, the “% cells in cell cycle phase subG1” value under setting [1] amounted to 151%. Also, where the note is “150 nM oligomeric compound”, the “% cells in cell cycle phase: G1” value was determined as 78%, the “% cells in cell cycle phase: G2/M” value was found to be 133%, the “% cells in cell cycle phase: S” value was found to be 129% and the “% cells in cell cycle phase: aneuploid” value amounted to 76%. The “% cells in cell cycle phase: subG1” value (150 nM oligomeric compound) came out at 456%.

As to “327897 (antisense eA*e[5mC]*eA*eG*eG*e[5mC]*e[5mC]*eG*eG*eG*eA*e[5mC]*eA*eA*eG*eT*eG*e[5mC]*eA*eA*eT*eA) [compound 327897]”, under setting [1], the “% cells aneuploid” value is 69% and 54%; the “% cells in cell cycle phase G1” value is 114% and 128%; the “% cells in cell cycle phase G2/M” value was 115% and 100%; the “% cells in cell cycle phase S” value is 80% and 74%. Besides, the “% cells in cell cycle phase subG1” value under setting [1] was 143% and 180%. Moreover, where the note is “150 nM oligomeric compound”, the “% cells in cell cycle phase: G1” value was 100% and 94%; the “% cells in cell cycle phase: G2/M” value is 95% and 105%; the “% cells in cell cycle phase: S” value is 103% and 114%; the “% cells in cell cycle phase: aneuploid” value was 84% and 63%. For the same substance, the “% cells in cell cycle phase: subG1” value (150 nM oligomeric compound) was 134% and 125%.

With “327877 (antisense e[5mC]*eG*e[5mC]*e[5mC]*eA*eA*eT*eA*eT*eT*eT*eA*e[5mC]*eG*eT*eG*e[5mC]*eT*eG*e[5mC]*eT*eA) [compound 327877]”, under setting [1], the “% cells aneuploid” value is 62%, the “% cells in cell cycle phase G1” value was found to be 107%, the “% cells in cell cycle phase G2/M” value worked out at 159% and the “% cells in cell cycle phase S” value is 66%. The “% cells in cell cycle phase subG1” value under setting [1] worked out at 154%. For the same substance, under “150 nM oligomeric compound”, the “% cells in cell cycle phase: G1” value is recorded as 59%, the “% cells in cell cycle phase: G2/M” value was found to be 168%, the “% cells in cell cycle phase: S” value stood at 152% and the “% cells in cell cycle phase: aneuploid” value is 80%. The “% cells in cell cycle phase: subG1” value (150 nM oligomeric compound) was found to be 755%.

For the substance “ACTTTCGGTTATCTAGCTTTA [ISIS 327892] (chemistry not given here) [uniform 2′-MOE PS; targets mir-131-2/mir-9]”, the “phase of the cell cycle in which cells arrest or delay” value (HeLa, 150 nM, 48 hours) was “G2/M- and S-phases”.

On to “328362 (eT*eG*eT*eG*eT*dT*dT*dT*d[5mC]*dT*dG*dA*d[5mC]*dT*d[5mC]*eA*eG*eT*e[5mC]*eA) [compound 328362]”, for which, under setting [1], the “% cells aneuploid” value was 66%, the “% cells in cell cycle phase G1” value is listed as 101%, the “% cells in cell cycle phase G2/M” value stood at 126% and the “% cells in cell cycle phase S” value turned out to be 87%. Also, the “% cells in cell cycle phase subG1” value under setting [1] is on record as 114%. For the same substance, for the setting “150 nM oligomeric compound”, the “% cells in cell cycle phase: G1” value came out at 96%, the “% cells in cell cycle phase: G2/M” value is 108%, the “% cells in cell cycle phase: S” value is listed as 104% and the “% cells in cell cycle phase: aneuploid” value worked out at 97%. Also, the “% cells in cell cycle phase: subG1” value (150 nM oligomeric compound) was 87%.

On to “328136 (eA*eA*e[5mC]*eT*eA*e[5mC]*eT*eT*e[5mC]*e[5mC]*eA*eG*eA*eG*e[5mC]*eA*eG*eG*eT*eG*eA; anti-miR) [compound 328136]”, for which, under setting [1], the “% cells aneuploid” value was 51%, the “% cells in cell cycle phase G1” value came to 125%, the “% cells in cell cycle phase G2/M” value was determined as 88% and the “% cells in cell cycle phase S” value was 81%. In addition, the “% cells in cell cycle phase subG1” value under setting [1] is given as 330%. For the setting “150 nM oligomeric compound”, the “% cells in cell cycle phase: G1” value is reported as 83%, the “% cells in cell cycle phase: G2/M” value is given as 113%, the “% cells in cell cycle phase: S” value was found to be 133% and the “% cells in cell cycle phase: aneuploid” value was 85%. Also, the “% cells in cell cycle phase: subG1” value (150 nM oligomeric compound) was 140%.

Take “327904 (antisense eA*e[5mC]*eT*e[5mC]*eA*e[5mC]*e[5mC]*eG*eA*e[5mC]*eA*eG*e[5mC]*eG*eT*eT*eG*eA*eA*eT*eG*eT*eT) [compound 327904]”: under setting [1], the “% cells aneuploid” value was 89%, the “% cells in cell cycle phase G1” value amounted to 99%, the “% cells in cell cycle phase G2/M” value amounted to 99% and the “% cells in cell cycle phase S” value is on record as 102%. For the same substance, the “% cells in cell cycle phase subG1” value under setting [1] worked out at 114%. Moreover, where the note is “150 nM oligomeric compound”, the “% cells in cell cycle phase: G1” value is 87%, the “% cells in cell cycle phase: G2/M” value is on record as 114%, the “% cells in cell cycle phase: S” value is 126% and the “% cells in cell cycle phase: aneuploid” value came to 80%. Also, where the note is “150 nM oligomeric compound”, the “% cells in cell cycle phase: subG1” value is 116%.
